Tested on: term and late preterm subjects with hyperbilirubinemia
Assay: Phase 2b trial: adverse events
Type: in vivo, human
From the text: Safety measurements included adverse events (AEs), hematology and chemistry laboratory tests, vital sign measurements, physical examinations, dermatological assessments, hearing assessments, ophthalmological assessments, neurological assessments, and quantitative electrocardiograms (ECGs).
Safety population: Defined as all subjects who were enrolled in the clinical study and received IMP. Subjects were summarized according to the treatment received.
Analysis of Safety Parameters: Descriptive statistical methods were used to summarize safety parameters based on the safety population. All treatment-emergent adverse events (TEAEs) were summarized. Tabular summaries were also presented for all TEAEs considered potentially related to the IMP, TEAEs by intensity, serious adverse events (SAEs), and AEs leading to discontinuation.

Substance: tin IV mesoporphyrin IX dichloride [Stannsoporfin]
- # of subjects one AE, n (%) (1.5 mg/kg IM): 8 (47.1%)
- AE Anal Abscess: subjects, n (%) (1.5 mg/kg IM): 0
- AE Anemia: subjects, n (%) (1.5 mg/kg IM): 0
- AE Bradycardia: subjects, n (%) (1.5 mg/kg IM): 0
- AE CO2 decreased: subjects, n (%) (1.5 mg/kg IM): 0
- AE CRP increased: subjects, n (%) (1.5 mg/kg IM): 1 (5.9%)
- AE Contusion: subjects, n (%) (1.5 mg/kg IM): 1 (5.9%)
- AE Depressed level consciousness: subjects, n (%) (1.5 mg/kg IM): 0
- AE Diaper dermatitis: subjects, n (%) (1.5 mg/kg IM): 2 (11.8%)
- AE Erythema toxicum: subjects, n (%) (1.5 mg/kg IM): 0
- AE Erythema: subjects, n (%) (1.5 mg/kg IM): 0
- AE Flushing: subjects, n (%) (1.5 mg/kg IM): 0
- AE Hemangioma: subjects, n (%) (1.5 mg/kg IM): 1 (5.9%)
- AE Hemoglobin increased: subjects, n (%) (1.5 mg/kg IM): 0
- AE Hyperbilirubinemia: subjects, n (%) (1.5 mg/kg IM): 2 (11.8%)
- AE Jaundice: subjects, n (%) (1.5 mg/kg IM): 5 (29.4%)
- AE Leukocytosis: subjects, n (%) (1.5 mg/kg IM): 0
- AE Meningitis: subjects, n (%) (1.5 mg/kg IM): 0
- AE Oral Candidiasis: subjects, n (%) (1.5 mg/kg IM): 0
- AE Rash neonatal: subjects, n (%) (1.5 mg/kg IM): 0
- AE Rash papular: subjects, n (%) (1.5 mg/kg IM): 0
- AE Rash: subjects, n (%) (1.5 mg/kg IM): 1 (5.9%)
- AE Seborrhoeic dermatitis: subjects, n (%) (1.5 mg/kg IM): 0
- AE Serum Glucose decreased: subjects, n (%) (1.5 mg/kg IM): 0
- AE Serum sodium increased: subjects, n (%) (1.5 mg/kg IM): 0
- AE Skin exfoliation: subjects, n (%) (1.5 mg/kg IM): 1 (5.9%)
- AE Thrombocytopenia: subjects, n (%) (1.5 mg/kg IM): 0
- AE Umbilical Hernia: subjects, n (%) (1.5 mg/kg IM): 0
- AE Vomiting: subjects, n (%) (1.5 mg/kg IM): 0
- Total AEs (1.5 mg/kg IM, N = 17): 17
- # of subjects one AE, n (%) (3.0 mg/kg IM): 10 (55.6%)
- AE Anal Abscess: subjects, n (%) (3.0 mg/kg IM): 1 (5.6%)
- AE Anemia: subjects, n (%) (3.0 mg/kg IM): 1 (5.6%)
- AE Bradycardia: subjects, n (%) (3.0 mg/kg IM): 0
- AE CO2 decreased: subjects, n (%) (3.0 mg/kg IM): 1 (5.6%)
- AE CRP increased: subjects, n (%) (3.0 mg/kg IM): 0
- AE Contusion: subjects, n (%) (3.0 mg/kg IM): 0
- AE Depressed level consciousness: subjects, n (%) (3.0 mg/kg IM): 0
- AE Diaper dermatitis: subjects, n (%) (3.0 mg/kg IM): 1 (5.6%)
- AE Erythema toxicum: subjects, n (%) (3.0 mg/kg IM): 3 (16.7%)
- AE Erythema: subjects, n (%) (3.0 mg/kg IM): 1 (5.6%)
- AE Flushing: subjects, n (%) (3.0 mg/kg IM): 1 (5.6%)
- AE Hemangioma: subjects, n (%) (3.0 mg/kg IM): 0
- AE Hemoglobin increased: subjects, n (%) (3.0 mg/kg IM): 0
- AE Hyperbilirubinemia: subjects, n (%) (3.0 mg/kg IM): 1 (5.6%)
- AE Jaundice: subjects, n (%) (3.0 mg/kg IM): 0
- AE Leukocytosis: subjects, n (%) (3.0 mg/kg IM): 0
- AE Meningitis: subjects, n (%) (3.0 mg/kg IM): 0
- AE Oral Candidiasis: subjects, n (%) (3.0 mg/kg IM): 0
- AE Rash neonatal: subjects, n (%) (3.0 mg/kg IM): 1 (5.6%)
- AE Rash papular: subjects, n (%) (3.0 mg/kg IM): 0
- AE Rash: subjects, n (%) (3.0 mg/kg IM): 0
- AE Seborrhoeic dermatitis: subjects, n (%) (3.0 mg/kg IM): 1 (5.6%)
- AE Serum Glucose decreased: subjects, n (%) (3.0 mg/kg IM): 1 (5.6%)
- AE Serum sodium increased: subjects, n (%) (3.0 mg/kg IM): 1 (5.6%)
- AE Skin exfoliation: subjects, n (%) (3.0 mg/kg IM): 0
- AE Thrombocytopenia: subjects, n (%) (3.0 mg/kg IM): 0
- AE Umbilical Hernia: subjects, n (%) (3.0 mg/kg IM): 1 (5.6%)
- AE Vomiting: subjects, n (%) (3.0 mg/kg IM): 0
- Total AEs (3.0 mg/kg IM, N = 18): 16
- serious adverse event Anemia: Outcome (3.0 mg/kg, Rh incompatibility, required transfusion): Resolved
- # of subjects one AE, n (%) (4.5 mg/kg IM): 3 (37.5%)
- AE Anal Abscess: subjects, n (%) (4.5 mg/kg IM): 0
- AE Anemia: subjects, n (%) (4.5 mg/kg IM): 1 (12.5%)
- AE Bradycardia: subjects, n (%) (4.5 mg/kg IM): 1 (12.5%)
- AE CO2 decreased: subjects, n (%) (4.5 mg/kg IM): 0
- AE CRP increased: subjects, n (%) (4.5 mg/kg IM): 0
- AE Contusion: subjects, n (%) (4.5 mg/kg IM): 0
- AE Depressed level consciousness: subjects, n (%) (4.5 mg/kg IM): 1 (12.5%)
- AE Diaper dermatitis: subjects, n (%) (4.5 mg/kg IM): 0
- AE Erythema toxicum: subjects, n (%) (4.5 mg/kg IM): 0
- AE Erythema: subjects, n (%) (4.5 mg/kg IM): 1 (12.5%)
- AE Flushing: subjects, n (%) (4.5 mg/kg IM): 0
- AE Hemangioma: subjects, n (%) (4.5 mg/kg IM): 0
- AE Hemoglobin increased: subjects, n (%) (4.5 mg/kg IM): 1 (12.5%)
- AE Hyperbilirubinemia: subjects, n (%) (4.5 mg/kg IM): 0
- AE Jaundice: subjects, n (%) (4.5 mg/kg IM): 0
- AE Leukocytosis: subjects, n (%) (4.5 mg/kg IM): 1 (12.5%)
- AE Meningitis: subjects, n (%) (4.5 mg/kg IM): 1 (12.5%)
- AE Oral Candidiasis: subjects, n (%) (4.5 mg/kg IM): 0
- AE Rash neonatal: subjects, n (%) (4.5 mg/kg IM): 0
- AE Rash papular: subjects, n (%) (4.5 mg/kg IM): 0
- AE Rash: subjects, n (%) (4.5 mg/kg IM): 0
- AE Seborrhoeic dermatitis: subjects, n (%) (4.5 mg/kg IM): 0
- AE Serum Glucose decreased: subjects, n (%) (4.5 mg/kg IM): 0
- AE Serum sodium increased: subjects, n (%) (4.5 mg/kg IM): 0
- AE Skin exfoliation: subjects, n (%) (4.5 mg/kg IM): 0
- AE Thrombocytopenia: subjects, n (%) (4.5 mg/kg IM): 1 (12.5%)
- AE Umbilical Hernia: subjects, n (%) (4.5 mg/kg IM): 0
- AE Vomiting: subjects, n (%) (4.5 mg/kg IM): 0
- Total AEs (4.5 mg/kg IM, N = 8): 8
- serious adverse event Meningitis: Outcome (4.5 mg/kg, negative cultures): Resolved
- subjects who experienced at least 1 TEAE (each treatment group): Greater than 30%
- incidence of TEAEs, 3 stannsoporfin treatment groups versus placebo (final data): no statistically significant differences

Reference: patent US20130158362A1 (INFACARE PHARMACEUTICAL CORPORATION, priority 2011, published 2013)
